# Measurements reported in patent US12440486B2, “RBP4 antagonists for treatment and prevention of non-alcoholic fatty liver disease and gout” (The Trustees of Columbia University in the City of New York, priority 2018, dated 2025).
# How the values were obtained:
# RBP4 [1] = biological target: T1, RBP4 (Homo sapiens, UniProt P02753); assay: SPA assay measuring displacement of 3H-retinol from purified human RBP4; format: binding; conditions: for IC50: binding to human RBP4, 3H-retinol at 10 nM as radioligand; for ability to function as RBP4 ligands (competition binding): displacement of radioactive retinol from purified human RBP4
# Protocol: 3H-retinol at 10 nM was used as a radioligand. […] Contacting residues are labeled and illustrated in stick format (MOE, Chemical Computing Group, Inc., Montreal, CA).
# The affinity of palmitic acid, oleic acid, linoleic acid, and docosahexaenoic acid for RBP4 was tested using a SPA assay that measures displacement of radioactive retinol from purified human RBP4 (FIG. 21A).
# RBP4 [2] = biological target: T1, RBP4; conditions: Berni 1992; cited from earlier work
# RBP4-TTR interaction = RBP4-TTR interaction (Homo sapiens, UniProt P02753); conditions: Berni 1992, Schaffer 1993; cited from earlier work
# RBP4 [3] = biological target: RBP4 (Rattus norvegicus, UniProt P04916); conditions: Adams 1995; cited from earlier work
# ob/ob mice = ob/ob mice fed a high-fat diet, Koh 2012; cited from earlier work
Compound,IC50 (RBP4 [1]),binding to RBP4 (RBP4 [2]),RBP4-TTR interaction (RBP4-TTR interaction),serum RBP4 and retinol (RBP4 [3]),"weight gain, insulin resistance and fatty liver (ob/ob mice)",ability to function as RBP4 ligands (competition binding) (RBP4 [1])
"CC/C=C\C/C=C\C/C=C\C/C=C\C/C=C\C/C=C\CCC(=O)O [Docosahexanoic acid (DHA), docosahexaenoic acid]",49.9 µM,,,,,
"CC1=C(/C=C/C(C)=C/C=C/C(C)=C/C(=O)Nc2ccc(O)cc2)C(C)(C)CCC1 [fenretinide, N-(4-hydroxy-phenyl)retinamide]",,bind to RBP4,disrupt the RBP4-TTR interaction,reduce serum RBP4 and retinol,decreases,
CCCCC/C=C\C/C=C\CCCCCCCC(=O)O [linoleic acid],17.3 µM,,,,,weak RBP4 ligands
CCCCCCCC/C=C\CCCCCCCC(=O)O [oleic acid],33 µM,,,,,weak RBP4 ligands
CCCCCCCCCCCCCCCC(=O)O [palmitic acid],22.6 µM,,,,,weak RBP4 ligands
